# Values of other authors in patent US20040167185A1, “Methods of treating conditions associated with an Edg-3 receptor” (priority 2003, published 2004).
# Structures can show the parent of a compound that is named as a salt.
# Legend:
# [1] = biological target: Adrenergic α1, non-selective
# Angiotensin AT2 = biological target: T1, Angiotensin AT2 (Homo sapiens, UniProt P50052); details: Kd of the radioligand; Human recombinant Hela cells; historical value
# T1 construct: expressed in transfected cells; host or cells: Hela cells
# T1 sequence (P50052 1-363): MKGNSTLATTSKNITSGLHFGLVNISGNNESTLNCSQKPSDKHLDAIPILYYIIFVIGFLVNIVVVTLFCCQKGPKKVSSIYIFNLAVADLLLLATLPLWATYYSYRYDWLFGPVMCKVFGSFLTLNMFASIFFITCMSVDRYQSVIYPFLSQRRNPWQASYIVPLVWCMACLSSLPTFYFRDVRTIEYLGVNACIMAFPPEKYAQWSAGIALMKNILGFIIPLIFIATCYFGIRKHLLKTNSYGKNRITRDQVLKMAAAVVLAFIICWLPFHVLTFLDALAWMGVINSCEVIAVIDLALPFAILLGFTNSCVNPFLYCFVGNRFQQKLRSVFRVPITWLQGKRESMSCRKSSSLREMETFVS
# Adrenergic β = details: Kd of the radioligand; Wistar rat brain; historical value
# [2] = biological target: Serotonin 5-HT1, non-selective; details: Kd of the radioligand; Wistar rat cerebral cortex; historical value
compound,measurement,setting,value
"COc1cc2nc(N3CCN(C(=O)c4ccco4)CC3)nc(N)c2cc1OC [^3H Prazosin, Prazosin]",Kd,[1],290 pM
CGP-42112A [^125I CGP-42112A],Kd,Angiotensin AT2,12 pM
"CCCc1ccccc1OCC(O)CNC(C)C (stereo not shown) [^3H Dihydroaplenolol, Dihydroaplenolol]",Kd,Adrenergic β,500 pM
"NCCc1c[nH]c2ccc(O)cc12 [^3H Serotonin (5-HT) Trifluoroacetate, Serotonin (5-HT) Trifluoroacetate]",Kd,[2],610 pM
